Assay results from ChEMBL document CHEMBL1139709, “6-Hydroxy- and 6-methoxy-beta-carbolines as acetyl- and butyrylcholinesterase inhibitors” (Bioorg Med Chem Lett, 2006).

Tests used:
[1] = target: Cholinesterase (Homo sapiens, UniProt P06276); assay: Inhibition of BChE
[2] = target: Acetylcholinesterase (Homo sapiens, UniProt P22303); assay: Inhibition of AChE
Sequence of Acetylcholinesterase (P22303 whole entry): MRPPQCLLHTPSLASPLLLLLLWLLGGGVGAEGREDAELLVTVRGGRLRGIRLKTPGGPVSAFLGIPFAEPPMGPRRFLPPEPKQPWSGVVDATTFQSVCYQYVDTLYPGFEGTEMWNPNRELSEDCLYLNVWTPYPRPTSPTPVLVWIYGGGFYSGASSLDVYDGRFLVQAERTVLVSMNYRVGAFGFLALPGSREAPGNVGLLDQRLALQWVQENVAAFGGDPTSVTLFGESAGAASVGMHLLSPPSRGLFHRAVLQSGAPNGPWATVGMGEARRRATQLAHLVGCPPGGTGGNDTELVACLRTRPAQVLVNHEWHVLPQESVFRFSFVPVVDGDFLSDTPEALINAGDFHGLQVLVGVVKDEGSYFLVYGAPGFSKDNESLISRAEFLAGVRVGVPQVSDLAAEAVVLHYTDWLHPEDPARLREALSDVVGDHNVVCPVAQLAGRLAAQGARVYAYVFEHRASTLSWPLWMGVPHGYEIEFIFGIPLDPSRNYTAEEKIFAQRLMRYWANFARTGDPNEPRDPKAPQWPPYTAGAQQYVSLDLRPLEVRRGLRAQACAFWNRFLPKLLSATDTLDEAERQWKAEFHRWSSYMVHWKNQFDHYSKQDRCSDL

Sequence of Cholinesterase (P06276 whole entry): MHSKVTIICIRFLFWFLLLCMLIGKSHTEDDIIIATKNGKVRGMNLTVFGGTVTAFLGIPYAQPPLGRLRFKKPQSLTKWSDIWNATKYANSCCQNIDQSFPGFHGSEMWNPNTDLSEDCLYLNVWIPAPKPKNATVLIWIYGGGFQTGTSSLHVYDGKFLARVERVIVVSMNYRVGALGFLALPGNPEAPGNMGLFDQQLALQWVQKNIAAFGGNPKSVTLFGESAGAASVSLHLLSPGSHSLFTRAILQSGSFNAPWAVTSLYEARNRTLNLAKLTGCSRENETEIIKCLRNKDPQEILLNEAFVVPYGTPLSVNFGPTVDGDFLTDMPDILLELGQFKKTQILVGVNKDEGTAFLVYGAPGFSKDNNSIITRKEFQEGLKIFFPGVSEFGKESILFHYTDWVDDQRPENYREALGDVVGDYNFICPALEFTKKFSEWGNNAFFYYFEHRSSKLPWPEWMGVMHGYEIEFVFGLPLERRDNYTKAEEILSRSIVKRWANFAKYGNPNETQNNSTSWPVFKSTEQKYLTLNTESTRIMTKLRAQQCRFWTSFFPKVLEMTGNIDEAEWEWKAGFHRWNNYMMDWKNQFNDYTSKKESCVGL

SMILES	IC50 ([1]; read-out: IC50) [µM]	IC50 ([2]; read-out: IC50) [µM]	IC50 ([1]; read-out: Log IC50 (converted)) [µM]	IC50 ([2]; read-out: Log IC50 (converted)) [µM]
Cc1c2[nH]c3ccc(O)cc3c2cc[n+]1C	1.6	1	–	–
Cc1nccc2c1[nH]c1ccc(O)cc12	> 10	> 10	–	–
Cc1nccc2c3cc(O)ccc3n(C)c12	> 10	> 10	–	–
C[n+]1ccc2c(c1)[nH]c1ccc(O)cc12	8.7	4.2	–	–
COc1ccc2c(c1)c1ccnc(C)c1n2C	17.4	11.8	–	–
COc1ccc2[nH]c3c[n+](C)ccc3c2c1	17.5	2.2	–	–
COc1ccc2[nH]c3cnccc3c2c1	> 10	> 10	–	–
COc1ccc2[nH]c3c(C)[n+](C)ccc3c2c1	1.2	0.8	1.1	–
COc1ccc2c(c1)c1cc[n+](C)cc1n2C	20.9	1.3	–	1.4
Cn1c2ccc(O)cc2c2ccncc21	> 10	> 10	–	–
Cn1c2ccc(O)cc2c2cc[n+](C)cc21	32.2	1.8	–	–
COc1ccc2[nH]c3c(C)nccc3c2c1	> 10	> 10	–	–
COc1ccc2c(c1)c1cc[n+](C)c(C)c1n2C	> 10	> 10	–	–
COc1ccc2[nH]c3c(c2c1)CCNC3	> 10	> 10	–	–
Oc1ccc2[nH]c3cnccc3c2c1	> 10	> 10	–	–
Cc1c2c(cc[n+]1C)c1cc(O)ccc1n2C	2.7	1.9	–	–
COc1ccc2[nH]c3c(c2c1)CCNC3C (stereo not drawn) [ADRENOGLOMERULOTROPIN]	> 10	> 10	–	–
COc1ccc2c(c1)c1ccncc1n2C	> 10	> 10	–	–
